Experimental data as given in patent publication US7341751B2, “Eggplant extract for medical treatments” (priority 2006, dated 2008).

How the values were obtained:
[1] = tested on: IL-1-beta secretion by peripheral blood mononuclear cells (PBMC); assay: LPS-stimulated PBMC cytokine secretion, IL-1-beta ELISA; format: cell-based, human
Excerpt: (§1) FIG. 1 and the following two tables show data from an in vitro experiment using PBMC from a healthy donor who provided peripheral blood mononuclear cells (PBMC) for this experiment. (PBMC are isolated from whole blood by gradient centrifugation. PBMC contain mostly lymphocytes and monocytes (neutrophils having been excluded by the separation procedure). They are commonly used to assess immune functions in vitro.) The PBMC were stimulated with LPS. (LPS is lipopolysaccharide, a component of bacterial cell wall, which is commonly used as an antigen non-specific stimulator (also called a mitogen) of immune cell proliferation, synthesis and secretion. It is commonly used in vitro to simulate an immune response in vivo. Chemicals which block the LPS stimulated synthesis or secretion of pro-inflammatory mediators by immune cells (primarily lymphocytes and monocytes) may have similar activity in vivo and therefore may have anti-inflammatory activity in vivo.) After 24 to 48 hours, the supernatant from each culture well was collected and assayed for the pro-inflammatory mediator noted (tumer necrosis factor (TNF)-alpha or IL-1-beta using a modified enzyme linked immunosorbent assay (ELISA). […]

[2] = tested on: TNF-alpha secretion by peripheral blood mononuclear cells (PBMC); assay: LPS-stimulated PBMC cytokine secretion, TNF-alpha ELISA; format: cell-based, human
Excerpt: as §1

[3] = eggplant extract plus iron at 0.25%, percent of maximal secretion

In the case of C[C@]12CCC(=O)C=C1CC[C@@H]1[C@@H]2[C@@H](O)C[C@@]2(C)[C@H]1CC[C@]2(O)C(=O)CO [Hydrocortisone], the “Mean IL-1 beta release” value ([1]; eggplant extract + iron at 0.25%, supernatant after 24 to 48 hours, +LPS no drug 3507.8) is reported as 1757.8 picograms of cytokine per 1x10^6 cells, the “Mean IL-1-beta released, percent of +LPS (no drug)” value [1, 3] is reported as 50% and the “Mean TNF-alpha release” value ([2]; eggplant extract + iron at 0.25%, supernatant after 24 to 48 hours, +LPS no drug 11753.0) is reported as 298.8 picograms of cytokine per 1x10^6 cells. The “Mean TNF-alpha released, percent of +LPS (no drug)” value [2, 3] was 3%.
